Values of other authors, collected in PMC10177510, “A Multicenter, Open-Label, Phase I/II Study of FN-1501 in Patients with Advanced Solid Tumors” (Cancers, 2023).
Like-named read-outs stand apart in the source and are kept apart here.

Key:
[1] = preclinical, no reference given, cited from earlier work
[2] = tested on: MOLM-13 xenograft; conditions: preclinical, no reference given; cited from earlier work

## CN1CCN(Cc2ccc(NC(=O)c3[nH]ncc3Nc3ncnc4[nH]ccc34)cc2)CC1 [FN-1501]
[1]; 5 mg
  Css,u in mice: roughly 5 ng/mL
[1]; 20 mg
  Css,u in mice: ~50 ng/mL
[2]
  Dose at which tumor growth reached stasis: 20 mg/kg
